The record followed here is US7572793B2, “3-Substituted-4-pyrimidone derivatives” (Mitsubishi Tanabe Pharma Corporation, priority 2001, dated 2009).

SMILES strings stand for the structures.

The term IC50 denotes the concentration at which inhibition is half-maximal. A high value points to lower potency.

T1 sequence (A0A3Q1MT31 1-419): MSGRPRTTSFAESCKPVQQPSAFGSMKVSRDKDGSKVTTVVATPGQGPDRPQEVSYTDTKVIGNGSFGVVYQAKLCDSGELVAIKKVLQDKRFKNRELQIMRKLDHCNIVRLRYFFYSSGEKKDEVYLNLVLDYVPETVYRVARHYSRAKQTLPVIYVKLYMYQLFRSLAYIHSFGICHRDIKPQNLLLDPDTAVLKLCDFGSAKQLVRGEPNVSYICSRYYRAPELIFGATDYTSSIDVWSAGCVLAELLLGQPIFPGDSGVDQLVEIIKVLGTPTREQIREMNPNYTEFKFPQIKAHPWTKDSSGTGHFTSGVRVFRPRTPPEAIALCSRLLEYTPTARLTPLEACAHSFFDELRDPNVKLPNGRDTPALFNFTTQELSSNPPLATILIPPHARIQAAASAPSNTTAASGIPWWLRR

This experiment has as its target T1, bovine cerebral TPK1 (Bos taurus, UniProt A0A3Q1MT31).
T1 construct: from tissue; host or cells: bovine brain (cerebrum)
In words: Inhibitory activity against P-GS1 phosphorylation by bovine cerebral TPK1. The experiment is classed as biochemical. The settings on record: 41.7 μM [γ-32P]ATP, 25° C., 2 hours, pH 6.5. The procedure:
Inhibitory Activity of the Medicament of the Present Invention Against P-GS1 Phosphorylation by Bovine Cerebral TPK1
A mixture containing 100 mM MES-sodium hydroxide (pH 6.5), 1 mM magnesium acetate, 0.5 mM EGTA, 5 mM β-mercaptoethanol, 0.02% Tween 20, 10% glycerol, 12 μg/ml P-GS1, 41.7 μM [y-^32P] ATP (68 kBq/ml), bovine cerebral TPK1 and a compound shown in Table (a final mixture contained 1.7% DMSO deriving from a solution of a test compound prepared in the presence of 10% DMSO) was used as a reaction system. The phosphorylation was started by adding ATP, and the reaction was conducted at 25° C. for 2 hours, and then stopped by adding 21% perchloric acid on ice cooling. The reaction mixture was centrifuged at 12,000 rpm for 5 minutes and adsorbed on P81 paper (Whatmann), and then the paper was washed four times with 75 mM phosphoric acid, three times with water and once with acetone. The paper was dried, and the residual radioactivity was measured using a liquid scintillation counter. […] PHF formation, and that the medicaments of the present invention are effective for preventive and/or therapeutic treatment of Alzheimer disease and the above-mentioned diseases.
`Cn1c(N2CCOC(c3cccc(N4CCCC4)c3)C2)nc(-c2ccncn2)cc1=O` (single isomer, unassigned) [Compound B275] registered an IC50 of 7 nM.
The compound `Cn1c(N2CCOC(c3cccc(N4CCCC4)c3)C2)nc(-c2ccncn2)cc1=O` (single isomer, unassigned) [Compound B276] returned an IC50 of 4.8 nM.
Next, `Cn1c(N2CCOC(C(=O)c3ccccc3)C2)nc(-c2ccncn2)cc1=O` (single isomer, unassigned) [Compound C789]: 38 nM; `Cn1c(N2CCOC(C(=O)c3ccccc3)C2)nc(-c2ccncn2)cc1=O` (single isomer, unassigned) [Compound C790]: 0.64 nM; `Cn1c(NCC(=O)c2ccccc2)nc(-c2ccncn2)cc1=O` [Compound A119]: 24 nM.
The compound `Cn1c(NCC(=O)c2cccc(F)c2)nc(-c2ccncn2)cc1=O` [Compound A121] gave an IC50 of 19 nM.
Regarding `Cn1c(NCC(=O)c2cccc(Cl)c2)nc(-c2ccncn2)cc1=O` [Compound A124], the IC50 was 11 nM.
Take `Cc1cccc(C(=O)CNc2nc(-c3ccncn3)cc(=O)n2C)c1` [Compound A130]: the IC50 was found to be 30 nM.
The compound `Cn1c(N2CCOC(c3ccc(F)cc3)C2)nc(-c2ccncn2)cc1=O` (stereo not drawn) [Compound B030] displayed an IC50 of 11 nM.
Take `Cn1c(N2CCO[C@@H](c3ccc(F)cc3)C2)nc(-c2ccncn2)cc1=O` [Compound B031, (S)-2-[2-(4-fluorophenyl)morpholin-4-yl]-3-methyl-6-pyrimidin-4-yl-3H-pyrimidin-4-one]: the IC50 turned out to be 5 nM.
Then `Cn1c(N2CCO[C@H](c3ccc(F)cc3)C2)nc(-c2ccncn2)cc1=O` [Compound B032], with 32 nM; and `Cn1c(N2CCO[C@@H](c3ccccc3F)C2)nc(-c2ccncn2)cc1=O` [Compound B037], with 3 nM; and `COc1ccc([C@H]2CN(c3nc(-c4ccncn4)cc(=O)n3C)CCO2)cc1` [Compound B079, (S)-2-[2-(4-Methoxyphenyl)morpholin-4-yl]-3-methyl-6-pyrimidin-4-yl-3H-pyrimidin-4-one], with 2.9 nM.
Next, `COc1cccc([C@H]2CN(c3nc(-c4ccncn4)cc(=O)n3C)CCO2)c1` [Compound B082]: 4.6 nM; `COc1ccccc1C1CN(c2nc(-c3ccncn3)cc(=O)n2C)CCO1` (stereo not drawn) [Compound B084]: 1.2 nM; `COc1ccccc1[C@H]1CN(c2nc(-c3ccncn3)cc(=O)n2C)CCO1` [Compound B085]: 0.87 nM.
Consider `COc1cccc(OC)c1C1CN(c2nc(-c3ccncn3)cc(=O)n2C)CCO1` (stereo not drawn) [Compound B102], for which the IC50 worked out at 0.441 nM.
Next, `COc1cccc(OC)c1[C@H]1CN(c2nc(-c3ccncn3)cc(=O)n2C)CCO1` [Compound B103]: 0.23 nM.
In the case of `COc1cccc(OC)c1[C@@H]1CN(c2nc(-c3ccncn3)cc(=O)n2C)CCO1` [Compound B104], 4.5 nM corresponded to half-maximal inhibition (IC50).
In turn, `Cn1c(N2CCOC(c3c(Cl)cccc3Cl)C2)nc(-c2ccncn2)cc1=O` (stereo not drawn) [Compound B105] returned a half-inhibitory concentration (IC50) of 0.27 nM.
Then `Cn1c(N2CCOC(c3ccc(CN4CCCC4)cc3)C2)nc(-c2ccncn2)cc1=O` (stereo not drawn) [Compound B112], with 2.1 nM; and `Cn1c(N2CCOC(c3ccccc3OCC3CC3)C2)nc(-c2ccncn2)cc1=O` (stereo not drawn) [Compound B126], with 23 nM; and `Cn1c(N2CCOC(c3ccc(N4CCCC4)cc3)C2)nc(-c2ccncn2)cc1=O` (stereo not drawn) [Compound B140], with 3.7 nM.
As for `COc1ccc(C2CN(c3nc(-c4ccncn4)cc(=O)n3C)CC(C)(C)O2)cc1` (stereo not drawn) [Compound B217], the IC50 is 26.1 nM.
Then `Cn1c(N2CCOC(c3nc4ccccc4s3)C2)nc(-c2ccncn2)cc1=O` (stereo not drawn) [Compound B225], with 12 nM.
The compound `Cn1c(N2CCOC(c3cccc4c3OCC4)C2)nc(-c2ccncn2)cc1=O` (stereo not drawn) [Compound B237] came in with an IC50 of 0.821 nM.
In turn, `COc1cc(F)ccc1[C@H]1CN(c2nc(-c3ccncn3)cc(=O)n2C)CCO1` [Compound B238] yielded an IC50 of 0.47 nM.
